From the supplement of paper PMC10307832

What was measured:
Assay in all cases: relative viability (nuclei count vs DMSO), 5 days (fraction); higher = more cells survive
[1] = compound: C1CCC(CC1)N(CCNCCC2=C3C(=C(C=C2)O)NC(=O)CO3)C(=O)CCNCCC4=CC(=C(C=C4)Cl)Cl [AZ505] + COc1cc2c(Oc3ccc(NC(=O)C4(C(=O)Nc5ccc(F)cc5)CC4)cc3F)ccnc2cc1OCCCN1CCOCC1 [Foretinib] (partner 0.25 µM)
How it was run: (§1)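 Values are medians from duplicate plates. Each reflects relative viability, defined as the nuclei count of treated wells over that of vehicle wells. Lung cancer cell lines in 1536-well plates were pin-tool dosed one day after seeding with one drug alone or with a fixed anchor-drug dose plus five library-drug doses (not always all listed) in √10 steps, then fixed, stained and imaged at 4× after 5 days.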

[2] = compound: C1CCC(CC1)N(CCNCCC2=C3C(=C(C=C2)O)NC(=O)CO3)C(=O)CCNCCC4=CC(=C(C=C4)Cl)Cl [AZ505] + CS(=O)(=O)N1CCN(Cc2cc3nc(-c4cccc5[nH]ncc45)nc(N4CCOCC4)c3s2)CC1 [Pictilisib] (partner 1 µM)
How it was run: as §1

[3] = compound: Cn1c(=O)n(-c2ccc(C(C)(C)C#N)cc2)c2c3cc(-c4cnc5ccccc5c4)ccc3ncc21 [Dactolisib] + Cc1cc(Nc2cc(N3CCN(C)CC3)nc(Sc3ccc(NC(=O)C4CC4)cc3)n2)n[nH]1 [Tozasertib] (partner 0.1 µM)
How it was run: as §1

[4] = compound: Cn1c(=O)n(-c2ccc(C(C)(C)C#N)cc2)c2c3cc(-c4cnc5ccccc5c4)ccc3ncc21 [Dactolisib] + O=C(c1cc(Cc2n[nH]c(=O)c3ccccc23)ccc1F)N1CCN(C(=O)C2CC2)CC1 [Olaparib] (partner 8 µM)
How it was run: as §1

Cell Line | relative viability ([1]; first compound 0.08 µM) | relative viability ([1]; first compound 0.253 µM) | relative viability ([1]; first compound 0.8 µM) | relative viability ([1]; first compound 2.53 µM) | relative viability ([1]; first compound 8 µM) | relative viability ([2]; first compound 0.08 µM) | relative viability ([2]; first compound 0.253 µM) | relative viability ([2]; first compound 0.8 µM) | relative viability ([2]; first compound 2.53 µM) | relative viability ([2]; first compound 8 µM) | relative viability ([3]; first compound 0.002 µM) | relative viability ([3]; first compound 0.006325 µM) | relative viability ([3]; first compound 0.02 µM) | relative viability ([3]; first compound 0.06325 µM) | relative viability ([3]; first compound 0.2 µM) | relative viability ([4]; first compound 0.002 µM) | relative viability ([4]; first compound 0.006325 µM) | relative viability ([4]; first compound 0.02 µM) | relative viability ([4]; first compound 0.06325 µM) | relative viability ([4]; first compound 0.2 µM)
HCC-15 | 0.911 | 1.04 | 1.03 | 1.02 | 1.02 | 0.658 | 0.657 | 0.712 | 0.462 | 0.71 | 0.388 | 0.386 | 0.449 | 0.326 | 0.215 | 0.957 | 0.699 | 0.699 | 0.535 | 0.39
COR-L23 | 0.878 | 0.928 | 0.909 | 0.863 | 0.975 | 0.546 | 0.741 | 0.486 | 0.686 | 0.535 | 0.273 | 0.243 | 0.257 | 0.149 | 0.147 | 0.345 | 0.351 | 0.312 | 0.182 | 0.141
HCC-78 | 0.575 | 0.631 | 0.578 | 0.568 | 0.644 | – | 0.219 | 0.179 | 0.264 | 0.289 | 0.457 | 0.418 | 0.414 | 0.361 | 0.284 | 0.856 | 0.94 | 0.669 | 0.452 | 0.336
NCI-H727 | 0.998 | 0.861 | 0.856 | – | 0.993 | 0.327 | 0.313 | 0.468 | 0.274 | 0.47 | 0.585 | 0.587 | 0.561 | 0.451 | 0.407 | – | 0.79 | 0.874 | 0.699 | 0.629
NCI-H2087 | 1.12 | 1.02 | 0.997 | 1.14 | 1.21 | 0.679 | 0.703 | 0.797 | 0.738 | 0.828 | 0.328 | 0.248 | 0.243 | 0.176 | 0.192 | 0.719 | 0.474 | 0.631 | 0.197 | 0.243
BEN | 0.612 | 0.644 | 0.693 | 0.675 | 0.833 | 0.498 | 0.611 | 0.565 | 0.599 | 0.622 | 0.525 | 0.553 | 0.53 | 0.49 | 0.42 | 0.988 | 0.939 | 1.08 | 0.635 | 0.478
LCLC-103H | 0.734 | 0.857 | 0.729 | 0.848 | 0.715 | 0.627 | 0.532 | 0.555 | 0.657 | 0.6 | 0.492 | 0.481 | 0.451 | 0.379 | 0.286 | 0.823 | 0.743 | 0.647 | 0.571 | 0.395
EKVX | 0.586 | 0.801 | 0.827 | 0.433 | 0.75 | 0.388 | 0.466 | 0.425 | 0.446 | 0.501 | 0.426 | 0.366 | 0.423 | 0.242 | 0.179 | 0.661 | 0.867 | 0.861 | 0.469 | 0.331
LXF-289 | 0.887 | 0.972 | 0.923 | 0.96 | 0.956 | 0.706 | – | 0.773 | 0.731 | 0.818 | 0.236 | 0.189 | 0.226 | 0.182 | 0.136 | 1.21 | 0.986 | 1 | 0.973 | 0.695
ABC-1 | 0.856 | 1.21 | 0.976 | 1.02 | 0.863 | 0.711 | 0.618 | 0.759 | 0.662 | 0.57 | 0.188 | 0.176 | 0.165 | 0.166 | 0.19 | 0.911 | 0.862 | 0.952 | 1.1 | 0.613
NCI-H650 | 1.01 | 1.14 | 1.06 | 1.08 | 1.01 | 0.69 | 1.01 | 0.876 | 0.86 | 0.885 | 0.713 | 0.651 | 0.711 | 0.608 | 0.408 | 0.552 | 0.378 | 0.437 | 0.312 | 0.195
NCI-H1650 | 0.965 | 1.05 | 1.34 | 0.865 | 1.24 | 0.488 | 0.594 | 0.586 | 0.492 | 0.502 | 0.397 | 0.476 | 0.425 | 0.367 | 0.302 | 1.03 | 0.704 | 0.722 | 0.498 | 0.568
NCI-H2085 | 0.698 | 0.887 | 0.915 | 0.821 | 1.08 | 0.444 | 0.39 | 0.502 | 0.435 | 0.531 | 0.852 | 0.776 | 0.649 | 0.502 | 0.347 | 0.887 | 0.778 | 0.689 | 0.513 | 0.359
NCI-H1793 | 0.627 | 0.735 | 0.758 | – | 0.572 | 0.284 | 0.417 | 0.426 | 0.31 | 0.386 | 0.329 | 0.242 | 0.199 | 0.126 | 0.106 | 0.784 | 0.299 | 0.254 | 0.18 | 0.169
LC-2-ad | 0.84 | 0.941 | 0.831 | 0.814 | 0.993 | 0.427 | 0.422 | 0.465 | 0.515 | 0.508 | 0.454 | 0.412 | 0.43 | 0.363 | 0.333 | 0.825 | 0.749 | 0.747 | 0.864 | 0.852
COR-L 105 | 0.76 | 1.29 | 0.981 | 0.862 | 0.903 | 0.368 | 0.391 | 0.375 | 0.355 | 0.497 | 0.413 | 0.401 | 0.35 | 0.361 | 0.289 | 0.629 | 0.744 | 0.76 | 0.592 | 0.367
NCI-H1355 | 0.819 | 1.01 | 0.992 | 1 | 1.01 | 0.409 | 0.338 | 0.428 | 0.321 | 0.445 | 0.625 | 0.537 | 0.447 | 0.456 | 0.177 | 0.831 | 0.684 | 0.644 | 0.443 | 0.27
H3255 | 0.81 | 1.05 | 0.924 | 0.872 | 1.19 | 0.395 | 0.39 | 0.48 | 0.424 | 0.598 | 0.525 | 0.521 | 0.682 | 0.51 | 0.432 | 0.559 | 0.56 | 0.499 | 0.475 | 0.399
NCI-H1993 | 0.764 | 0.702 | 0.731 | 0.846 | 0.963 | 0.679 | 0.798 | 0.807 | 0.768 | 0.776 | 0.584 | 0.581 | 0.504 | 0.495 | 0.502 | 1.29 | 0.865 | 0.827 | 0.432 | 0.37
NCI-H1734 | 0.785 | 0.811 | 0.754 | 0.751 | 0.829 | 0.384 | 0.407 | 0.446 | 0.44 | 0.431 | 0.212 | 0.259 | 0.279 | 0.23 | 0.198 | 0.644 | 0.548 | 0.471 | 0.405 | 0.266
HOP-62 | 1.06 | 1.13 | 1.03 | 1.08 | 1.13 | 0.557 | 0.678 | 0.829 | 0.407 | 0.647 | 0.423 | 0.383 | 0.473 | 0.306 | 0.309 | 0.378 | 0.464 | 0.542 | 0.298 | 0.36
LOU-NH91 | 0.872 | 0.931 | 0.909 | 0.869 | 0.968 | 0.493 | 0.512 | 0.537 | 0.452 | 0.531 | 0.645 | 0.655 | 0.683 | 0.616 | 0.449 | 0.832 | 0.901 | 0.886 | 0.608 | 0.632
ChaGo-K-1 | 0.936 | 1.11 | 0.928 | 0.951 | 0.91 | 0.824 | 0.58 | 0.691 | 0.819 | 0.901 | 0.248 | 0.235 | 0.221 | 0.223 | 0.211 | 0.404 | 0.419 | 0.421 | 0.457 | 0.443
NCI-H2228 | 0.644 | 0.799 | 0.809 | 0.823 | 0.665 | 0.317 | 0.247 | 0.536 | 0.332 | 0.484 | 0.256 | 0.294 | 0.191 | 0.112 | 0.0991 | 1.01 | 0.486 | 0.326 | 0.177 | 0.104
PC-14 | 0.922 | 0.927 | 1.03 | 1.01 | 0.937 | 0.449 | 0.754 | 0.658 | 0.643 | 0.703 | 0.576 | 0.679 | 0.629 | 0.215 | 0.125 | 0.337 | 0.505 | 0.359 | 0.141 | 0.0895
NCI-H1437 | 1.16 | 1.26 | 1.21 | 1.29 | 1.18 | 0.46 | 0.424 | 0.599 | 0.415 | 0.404 | 0.467 | 0.425 | 0.415 | 0.518 | 0.382 | 0.686 | 0.6 | 0.629 | 0.64 | 0.543
NCI-H460 | 0.976 | 1.01 | 0.982 | 1.03 | 0.966 | 0.264 | 0.299 | 0.337 | 0.29 | 0.364 | 0.38 | 0.396 | 0.387 | 0.257 | 0.139 | 0.256 | 0.45 | 0.423 | 0.341 | 0.335
